Patent publication US20190218508A1, “METHODS OF CELL SEPARATION” (CELLS4LIFE GROUP LLP, priority 2013, published 2019)

Tested on: erythrocytes
Experiment: Visual separation (sedimentation) of erythrocyte and nucleated cell fractions of blood samples
Assay type: cell-based
Conditions: for separation of whole blood / order from best to worst of each substance at the separation: Example 4; for separation of whole blood: whole blood 1:1 with PBS composition of 2.5% Dextran 70 plus substance at 1-5%, 30 minutes room temperature; for order from best to worst of each substance at the separation: with 2.5% Dextran 70
Protocol: Umbilical cord blood was collected into standard Baxter 250 ml (nominal) blood bags containing 35 ml of a citrate phosphate dextrose adenine (CPDA) anticoagulant solution.
A solution containing dextran and a further constituent selected from dimethyl sulphoxide (DMSO), dimethyl glycine (DMG), L-valine, L-proline, β-alanine, leucine, isoleucine and glycine, in phosphate-buffered saline (PBS), was prepared. This solution was added to a blood sample at a ratio of 1:1, this was then mixed thoroughly. Separation of the erythrocyte and nucleated cell fractions took place at room temperature within a time period of 15 or 30 minutes. […]
Whole blood samples were mixed with 1:1 with PBS compositions comprising 2.5% Dextran 70 plus DMSO, L-valine, L-proline, β-alanine, leucine, isoleucine, glycine and DMG. Each of the amino acids and the DMSO were tested at concentration levels of 1%, 1.5%, 2%, 2.5%, 3%, 3.5%, 4%, 4.5% and 5% in the PBS composition. After mixing, each sample was left for 30 minutes at room temperature. […]

[1] = dextran 70 Mw final 2.5% + substance final 2.5% w/v, after 30 minutes, data not shown

Row | SMILES | separation of whole blood | order from best to worst of each substance at the separation | separation of erythrocytes and nucleated cells [1] | separation of erythrocytes and nucleated cells (dextran 500 Mw final 2.5% w/v + DMSO final 1% to 5% v/v, after 15 minutes and 30 minutes) | separation of the erythrocytes from the nucleated cells (umbilical cord blood 1:1, dextran 500 Mw final 2.5% w/v + DMSO final 2% or 2.5% v/v, 30 minutes)
1 | NCCC(=O)O [β-alanine] | did very little | DMSO>L-valine>DMG>L-proline>β-alanine>Leucine/isoleucine/glycine | little if any separation | – | –
2 | O=C(O)[C@@H]1CCCN1 [L-proline] | did very little | DMSO>L-valine>DMG>L-proline>β-alanine>Leucine/isoleucine/glycine | little if any separation | – | –
3 | CC(C)C[C@H](N)C(=O)O [leucine] | almost total inactivity | DMSO>L-valine>DMG>L-proline>β-alanine>Leucine/isoleucine/glycine | little if any separation | – | –
4 | CC(C)[C@H](N)C(=O)O [L-valine] | performed better than DMG | DMSO>L-valine>DMG>L-proline>β-alanine>Leucine/isoleucine/glycine | clear separation | – | –
5 | NCC(=O)O [glycine] | almost total inactivity | DMSO>L-valine>DMG>L-proline>β-alanine>Leucine/isoleucine/glycine | little if any separation | – | –
6 | CN(C)CC(=O)O [DMG, dimethyl glycine] | – | DMSO>L-valine>DMG>L-proline>β-alanine>Leucine/isoleucine/glycine | clear separation | – | –
7 | CC[C@H](C)[C@H](N)C(=O)O [isoleucine] | almost total inactivity | DMSO>L-valine>DMG>L-proline>β-alanine>Leucine/isoleucine/glycine | little if any separation | – | –
8 | C[S+](C)[O-] [DMSO, dimethyl sulphoxide] | – | DMSO>L-valine>DMG>L-proline>β-alanine>Leucine/isoleucine/glycine | – | clear separation | clear separation
